Experimental data as given in US20130131161A1, “METHODS AND COMPOSITIONS FOR CARDIOVASCULAR DISEASES AND CONDITIONS” (priority 2009, published 2013).

System: Human umbilical vein endothelial cells (HUVECs)
Assay: eNOS activity analysis: NO, ONOO− and NO/ONOO− release from HUVECs of 50 genotyped donors in response to LA-419 (Example 2)
Type: cell-based
Settings: for Net increase over control ONOO− (mean ± sd) / Peak release NO (mean ± sd) / Peak release NO/ONOO− (mean ± sd) / Peak release ONOO− (mean ± sd) / Net increase over control NO (mean ± sd) / Net increase over control NO/ONOO− (mean ± sd) / % Change Ratio, % Change NO/% Change ONOO− (mean ± sd): LA-419 1 μM; for % Change NO (mean ± sd) / % Change NO/ONOO− (mean ± sd) / % Change ONOO− (mean ± sd): LA-419 5 μM vs control
Procedure: Concurrent measurements of NO and ONOO^− were carried out with tandem electrochemical nanosensors combined into one working unit with a total diameter of 200-500 nm (FIG. 1). Their design was based on previously developed and well-characterized chemically modified carbon-fiber technology (Malinski and Taha, 1992; Lvovich and Scheeline, 1997). Each of the nanosensors was made by depositing a sensing material on the tip of a carbon fiber (length 4-5 μm, diameter 0.2-0.5 μm). The fibers were sealed with nonconductive epoxy and electrically connected to copper wires with conductive silver epoxy. A conductive film of polymeric nickel (II) tetrakis(3-methoxy-4-hydroxyphenyl)porphyrin for the NO-sensor and polymeric film of Mn (III) [2.2]paracyclophanylporphyrin was used for the ONOO^−-sensor.
A module of NO/ONOO^− nanosensors (diameter 1-2 μm) with a platinum wire (0.1 mm) counter electrode and saturated calomel reference electrode (SCE) were applied. Differential pulse voltammetry (DPV) and amperometry were performed with a computer-based Gamry VFP600 multichannel potentiostat. DPV was used to measure the basal NO and ONOO^− concentrations, and amperometry was used to measure changes in NO and ONOO^− concentrations from its basal level with time. The DPV current at the peak potential characteristic for NO oxidation (0.65 V) and ONOO^− reduction (−0.45 V) was directly proportional to the local concentrations of these compounds in the immediate vicinity of the sensor. Linear calibration curves (current vs. concentration) were constructed for each sensor from 10 nM to 3 μM before and after measurements with aliquots of NO and ONOO^− standard solutions, respectively. The detection limit of the sensors was 1.0 nM.
The quantification of each analyte (concentration in nM) was performed using a maximum current from amperograms and standard calibration curves. A reproducibility of measurements with nanosensors is relatively high (between 5-12%). […] The sensors were slowly raised 5±2 μm from the surface of a single endothelial cell. The eNOS agonist, calcium ionophore A23187 (CaI) as well as the different drugs were then added to the surrounding media at the cell surface with a nanoinjector that was also positioned by a computer controlled-micromanipulator.
This example describes the genotype-specific response of the three major eNOS variants to 1 μM and 5 μM concentrations of LA-419. The three major genetic polymorphisms studied were the Glu298Asp variant (E298D or 894G→T) in exon 7 of […], the −786T→C variant in the promoter region, and the intron 4 polymorphism (VNTR). All of these variants have possible effects on the cardiovascular system and endothelial dysfunction. For this study, human umbilical vein endothelial cells (HUVECs) from 50 donors between 18 and 32 years of age were used.
For the analysis several analysis techniques were employed. First, the effect of genotype on NO and ONOO^− release was explored within the different concentrations of LA-419 (control, 1 μM, 5 μM), calculated as the average peak release (nmols/L) of NO, ONOO^−, and NO/ONOO^−. The effect of genotype on the net increase in NO, ONOO^−, and NO/ONOO^− for LA-419 (1 μM and 5 μM) as compared to control was also measured. In addition, an analysis was done on the effect of genotype on the % change in NO, ONOO^−, and NO/ONOO^− production for LA-419 (1 μM and 5 μM), calculated as:
% Change=[(avg. LA-419−avg. control)/(avg. control)]*100
Finally, an evaluation was undertaken concerning the effect of genotype on the production of NO, ONOO^−, and NO/ONOO^− as the fold difference of control for LA-419 (1 μM and 5 μM), calculated as:
Fold Difference=(avg. LA-419)/(avg. control)
Within each calculation technique the results were compared for statistical significance using a non-parametric ANOVA Kruskal-Wallace test or a non-parametric Mann-Whitney U test. Statistical significance was set at a p-value <0.05 in a two-tailed distribution. […]

[1] = HUVECs Intron 4 variant b/a, a/a, c/c
[2] = HUVECs T-786C variant T/C & C/C
[3] = HUVEC donor Race Caucasian/Black

CC(=O)SC1COC2C(O[N+](=O)[O-])COC12 (stereo not drawn) [LA-419, S-(6-Nitro-oxi-hexahydro-furo[3,2-b]furan-3-1-il)thioacetate]
Net increase over control ONOO− (mean ± sd) (HUVECs Intron 4 variant b/a): −37.57 (99.15) nmols/L | Peak release NO (mean ± sd) (HUVECs Intron 4 variant b/a): 377.23 (69.05) nmols/L | Peak release NO/ONOO− (mean ± sd) (HUVECs Intron 4 variant b/a): 1.25 (0.46) | Peak release ONOO− (mean ± sd) (HUVECs Intron 4 variant b/a): 330.47 (88.93) nmols/L | Net increase over control NO (mean ± sd) [1]: 27.83 (86.07) nmols/L | Net increase over control NO/ONOO− (mean ± sd) [1]: 0.16 (0.46) | Net increase over control ONOO− (mean ± sd) [1]: −21.43 (98.29) nmols/L | Peak release NO (mean ± sd) [1]: 366.00 (71.50) nmols/L | Peak release NO/ONOO− (mean ± sd) [1]: 1.15 (0.48) | Peak release ONOO− (mean ± sd) [1]: 356.55 (98.40) nmols/L | Net increase over control NO (mean ± sd) (HUVECs Intron 4 variant b/b): 39.66 (70.27) nmols/L | Net increase over control NO/ONOO− (mean ± sd) (HUVECs Intron 4 variant b/b): 0.29 (0.47) | Net increase over control ONOO− (mean ± sd) (HUVECs Intron 4 variant b/b): −51.71 (108.03) nmols/L | Peak release NO (mean ± sd) (HUVECs Intron 4 variant b/b): 393.18 (77.21) nmols/L | Peak release NO/ONOO− (mean ± sd) (HUVECs Intron 4 variant b/b): 1.33 (0.42) | Peak release ONOO− (mean ± sd) (HUVECs Intron 4 variant b/b): 317.60 (74.77) nmols/L | Net increase over control NO (mean ± sd) (HUVECs Intron 4 variant c/c): −98.67 (0) nmols/L | Net increase over control NO/ONOO− (mean ± sd) (HUVECs Intron 4 variant c/c): −0.23 (0) | Net increase over control ONOO− (mean ± sd) (HUVECs Intron 4 variant c/c): −2.67 (0) nmols/L | Peak release NO (mean ± sd) (HUVECs Intron 4 variant c/c): 270.00 (0) nmols/L | Peak release NO/ONOO− (mean ± sd) (HUVECs Intron 4 variant c/c): 0.64 (0) | Peak release ONOO− (mean ± sd) (HUVECs Intron 4 variant c/c): 423.67 (0) nmols/L | % Change Ratio, % Change NO/% Change ONOO− (mean ± sd) (HUVECs T-786C variant C/C): −0.80 (1.04) | Net increase over control NO (mean ± sd) (HUVECs T-786C variant C/C): 2.08 (39.61) nmols/L | Net increase over control NO/ONOO− (mean ± sd) (HUVECs T-786C variant C/C): −0.48 (0.48) | Net increase over control ONOO− (mean ± sd) (HUVECs T-786C variant C/C): 25.25 (135.63) nmols/L | Peak release NO (mean ± sd) (HUVECs T-786C variant C/C): 334.25 (68.06) nmols/L | Peak release NO/ONOO− (mean ± sd) (HUVECs T-786C variant C/C): 0.88 (0.50) | Peak release ONOO− (mean ± sd) (HUVECs T-786C variant C/C): 430.17 (124.82) nmols/L | % Change Ratio, % Change NO/% Change ONOO− (mean ± sd) (HUVECs T-786C variant T/C): −1.06 (0.82) | Net increase over control NO (mean ± sd) (HUVECs T-786C variant T/C): 46.77 (81.32) nmols/L | Net increase over control NO/ONOO− (mean ± sd) (HUVECs T-786C variant T/C): −0.99 (0.94) | Net increase over control ONOO− (mean ± sd) (HUVECs T-786C variant T/C): −61.09 (111.68) nmols/L | Peak release NO (mean ± sd) (HUVECs T-786C variant T/C): 396.32 (73.63) nmols/L | Peak release NO/ONOO− (mean ± sd) (HUVECs T-786C variant T/C): 1.35 (0.44) | Peak release ONOO− (mean ± sd) (HUVECs T-786C variant T/C): 315.74 (78.13) nmols/L | Net increase over control NO (mean ± sd) [2]: 40.15 (77.70) nmols/L | Net increase over control NO/ONOO− (mean ± sd) [2]: −0.91 (0.90) | Net increase over control ONOO− (mean ± sd) [2]: −48.30 (116.85) nmols/L | Peak release NO (mean ± sd) [2]: 387.12 (75.01) nmols/L | Peak release NO/ONOO− (mean ± sd) [2]: 1.28 (0.47) | Peak release ONOO− (mean ± sd) [2]: 332.69 (93.16) nmols/L | % Change Ratio, % Change NO/% Change ONOO− (mean ± sd) (HUVECs T-786C variant T/T): 1.06 (9.40) | Net increase over control NO (mean ± sd) (HUVECs T-786C variant T/T): 30.80 (64.85) nmols/L | Net increase over control NO/ONOO− (mean ± sd) (HUVECs T-786C variant T/T): 0.77 (8.26) | Net increase over control ONOO− (mean ± sd) (HUVECs T-786C variant T/T): −27.14 (82.12) nmols/L | Peak release NO (mean ± sd) (HUVECs T-786C variant T/T): 380.73 (75.61) nmols/L | Peak release NO/ONOO− (mean ± sd) (HUVECs T-786C variant T/T): 1.22 (0.43) | Peak release ONOO− (mean ± sd) (HUVECs T-786C variant T/T): 335.82 (80.98) nmols/L | ONOO− production versus control (LA-419 5 μM (Table b2)): decrease | % Change NO (mean ± sd) [3]: 16.93 (4.34) % | % Change NO/ONOO− (mean ± sd) [3]: 58.92 (16.01) % | % Change ONOO− (mean ± sd) [3]: −25.30 (9.90) % | % Change NO (mean ± sd) (HUVEC donor Race Not Reported): 18.69 (5.53) % | % Change NO/ONOO− (mean ± sd) (HUVEC donor Race Not Reported): 75.55 (20.43) % | % Change ONOO− (mean ± sd) (HUVEC donor Race Not Reported): −31.56 (5.34) % | % Change NO (mean ± sd) (HUVEC donor alpha): 12.82 (5.82) % | % Change NO/ONOO− (mean ± sd) (HUVEC donor alpha): 36.30 (14.59) % | % Change ONOO− (mean ± sd) (HUVEC donor alpha): −16.43 (6.22) % | % Change NO (mean ± sd) (HUVEC donor beta): 14.30 (6.78) % | % Change NO/ONOO− (mean ± sd) (HUVEC donor beta): 39.65 (12.24) % | % Change ONOO− (mean ± sd) (HUVEC donor beta): −17.84 (5.90) % | % Change NO (mean ± sd) (HUVEC donor delta): 13.97 (0) % | % Change NO/ONOO− (mean ± sd) (HUVEC donor delta): 57.83 (0) % | % Change ONOO− (mean ± sd) (HUVEC donor delta): −27.79 (0) % | % Change NO (mean ± sd) (HUVEC donor gamma): 17.23 (7.65) % | % Change NO/ONOO− (mean ± sd) (HUVEC donor gamma): 57.79 (12.24) % | % Change ONOO− (mean ± sd) (HUVEC donor gamma): −25.17 (5.79) % | % Change NO (mean ± sd) (HUVECs G894T variant G/G): 15.93 (6.37) % | % Change NO/ONOO− (mean ± sd) (HUVECs G894T variant G/G): 47.91 (17.67) % | % Change ONOO− (mean ± sd) (HUVECs G894T variant G/G): −20.65 (7.38) % | % Change NO (mean ± sd) (HUVECs G894T variant G/T): 13.43 (6.31) % | % Change NO/ONOO− (mean ± sd) (HUVECs G894T variant G/T): 38.86 (13.20) % | % Change ONOO− (mean ± sd) (HUVECs G894T variant G/T): −17.85 (6.26) % | % Change NO (mean ± sd) (HUVECs G894T variant T/T): 11.67 (6.86) % | % Change NO/ONOO− (mean ± sd) (HUVECs G894T variant T/T): 39.03 (13.43) % | % Change ONOO− (mean ± sd) (HUVECs G894T variant T/T): −19.03 (8.40) % | % Change NO (mean ± sd) (HUVECs Intron 4 variant a/a): 13.60 (3.88) % | % Change NO/ONOO− (mean ± sd) (HUVECs Intron 4 variant a/a): 36.75 (3.58) % | % Change ONOO− (mean ± sd) (HUVECs Intron 4 variant a/a): −16.60 (3.31) % | % Change NO (mean ± sd) (HUVECs Intron 4 variant b/a): 16.81 (6.88) % | % Change NO/ONOO− (mean ± sd) (HUVECs Intron 4 variant b/a): 45.81 (14.36) %
